Experimental data reported in US20060106099A1, “Novel inhibitors of ubiquitin isopeptidases” (priority 2002, published 2006).
Like-named read-outs stand apart in the source and are kept apart here.

Key:
[1] = tested on: isopeptidase; settings: cited from earlier work
[2] = tested on: HCT 116 +/+ cells; settings: Mullally et al., University of Utah, 2003; read-out: EC50 in competent HCT 116 cells; cited from earlier work
[3] = tested on: ubiquitin isopeptidases; experiment: In vitro isopeptidase activity in HCT 116 lysates, Ub-PEST; type: biochemical, human; settings: 2-200 μM, 45 min
Description: Isopeptidase Assay. It was hypothesized that the punaglandins would inhibit ubiquitin-isopeptidase activity of the proteasome pathway as does the prostaglandin, Δ^12-PGJ2 (1), but with greater potency because of the chlorinated C-10. To validate this theory, cellular isopeptidase enzymatic activity was measured in vitro after treatment with individual punaglandins, PNG 2 (6), PNG 3 (7), and Z-PNG 4 (9) and in vivo after individual treatment with PNG 4 (8) and PNG 6 (10). This activity was determined utilizing the simple isopeptidase substrate, ubiquitin-PEST (Ub-PEST), a full/length ubiquitin (Ub) molecule fused with an 18-amino acid C-terminal peptide extension that most isopeptidases use as a substrate. The polypeptide extension contains regions rich in Pro (P), Glu (E), Ser (S), and Thr (T) residues called PEST motifs that are responsible for rapid degradation of these and other unstable proteins. Ub isopeptidases specifically cleave this peptide extension, yielding free, full-length Ub. Both the fused Ub-PEST (10.5 kDa) and the cleaved, free Ub (8.5 kDa) can be observed via immunochemical detection.
In Vitro Isopeptidase Activity. PNG 2 (6), PNG 3 (7), and Z-PNG 4 (9) were initially analyzed for isopeptidase activity in vitro in HCT 116 lysates. Cells were lysed with isopeptidase activity buffer and protein concentration adjusted to 0.3 mg/mL per sample. Each sample was subsequently incubated with 2 μM, 6 μM, 20 μM, 60 μM, or 200 μM of PNG 2 (6), PNG 3 (7), Z-PNG 4 (9), Δ^12-PGJ2 (1), and PGA1 (2) in addition to 50 μg/ml of Ub-PEST. Negative control cells were treated with vehicle (0.5% DMSO) and equivalent Ub-PEST. […] The amount of fused Ub-PEST and free Ub product was determined by SDS-PAGE fractionation.

[4] = tested on: RKO cells; experiment: MTT cell viability assay, RKO cells
[5] = tested on: p53; experiment: p53 accumulation ratio in RKO-E6 and RKO cells, punaglandin study; type: cell-based, human; settings: 6 h; 50 μM Etoposide, 60 μM PGA2
Description: To determine if punaglandins inhibit p53 degradation by disrupting the proteasome pathway, the accumulation ratio of p53 was determined in RKO and RKO-E6 cells treated with selected punaglandins, PNG 4 (8) and PNG 6 (10). Equally seeded RKO and RKO-E6 cells were treated with vehicle (0.5% DMSO), 50 μM Etoposide, 60 μM PGA2 (3), 7 μM PNG 6 (10), and 7 μM PNG 4 (8). After 6 h incubation with vehicle or drug, cells were lysed and harvester. […] of protein from each lysate was fractionated by SDS-PAGE and probed for p53 protein. The p53 band intensities were then analyzed and quantitated using densitometry. The ratio of p53 in RKO-E6 to RKO cells was calculated by dividing the amount of p53 in RKO-E6 cells by the amount in RKO cells and multiplying by 100 to give percent

[6] = tested on: p53; experiment: p53 accumulation, ratio RKO-E6 cells/RKO cells (immunoblot, densitometry); type: cell-based, human; settings: 6 h; etoposide 50 μM, MG115, NSC-302979, DBA 20 μM, others 60 μM
Description: A) Accumulation of polyubiquitin. RKO-E6 cells were treated with DMSO vehicle for 24 h, 37° C., or with the concentrations of test compounds that gave 80% cell death (as determined by cell viability assay at 48 h) for 6, 12, or 24 h, 37° C. […] Schematic depicting p53 degradation via the proteasome pathway in RKO cells versus RKO-E6 cells. The activity of the HPV E6 oncoprotein hastens p53 degradation in RKO-E6 cells. ii. RKO and RKO-E6 cells were treated with vehicle, etoposide (50 μM), MG115 (20 μM), Δ12-PGJ2 (60 μM), NSC-302979 (20 μM, DBA (20 μM), curcumin (60 μM), PGB1 (60 μM), NSC-156236, (60 XM)or DPTP 60 μM for 6 h, 37° C. Lysates were fractionated by SDS-PAGE and their p53 content determined immunochemically. iii. p53 levels were measured by densitometry and the ratio of p53 protein in RKO-E6 cells/RKO cells calculated.
The medium was removed and cells lysed in 50 mM Tris, pH 7.4, 100 mM NaCl, 2 mM EDTA with 0.1% SDS, 0.1% deoxycholate, 1× complete protease inhibitor mixture. Protein concentration was measured by the Bradford method. Equal portions of the total cell lysate were fractionated from each sample (12.5 μg of protein) by SDS-PAGE. Proteins were transferred to poly(vinylidene difluoride) blocked with 5% (w/v) nonfat dry milk in Trisbuffered saline [20 mM Tris-HCl, pH 7.5, 100 mM sodium chloride, 0.1% (v/v) Tween 20]. Proteins were detected immunochemically by using primary antibodies directed against p53 (1:4000) or ubiquitin (1:1000), followed by horseradish peroxidase-conjugated secondary antibodies (1:4000). Antigen-antibody complexes were detected with enhanced chemiluminescence reagents. Gels were scanned and quantified intensities using Kodak 1D Image Analysis Software.

[7] = tested on: HCT 116 −/− cells; experiment: MTT cell viability assay, HCT 116 p53 −/− cells; settings: for EC50: Homo sapiens, HCT-116, 48 h, read-out: Cytotoxic Potency (EC50) HCT −/−
[8] = tested on: RKO-E6 cells; experiment: MTT cell viability assay, RKO-E6 cells; settings: for EC50: Homo sapiens, RKOE6, 48 h, read-out: Cytotoxic Potency (EC50) RKO-E6
[9] = tested on: HCT 116 +/+ cells; experiment: MTT cell viability assay, HCT 116 p53 +/+ cells; settings: for EC50: Homo sapiens, HCT-116, 48 h, read-out: Cytotoxic Potency (EC50) HCT +/+
[10] = tested on: p21; experiment: p21 accumulation in RKO cells; type: cell-based, human; settings: 6 h
Description: It was therefore hypothesized that the isopeptidase inhibitors PNG 4 (8) and PNG 6 (10) would cause a similar accumulation of p21 protein. RKO cells were treated with 2 μM and 7 μM of 8 and 10, 50 μM Etoposide, 60 μM PGA2 (3), or 0.5% DMSO for 6 h before harvesting. Protein was then quantitated, fractionated by SDS-PAGE, and probed for p21 protein. The p21 band intensities were then analyzed and quantitated using densitometry. The ratio of p21 in treated cells to control cells was calculated by dividing the amount of p21 in treated cells by the amount in control cells and multiplied by 100 to give percent.

[11] = tested on: caspase-3; experiment: Caspase-3 activity in RKO cells (DEVD-AMC); type: cell-based, human; settings: PNG 4 0.5 μM, PNG 6 1 μM, Taxol 1 μM
Description: To determine if selected punaglandins, PNG 4 (8) and PNG 6 (10) also induce apoptosis in RKO cells in a time dependent manner, caspase-3 activity was determined. During apoptosis the caspases, a family of cysteinyl aspartate-specific proteases, are activated. These enzymes cleave specific substrates resulting in biochemical and morphological changes associated with apoptosis. Therefore, detection of activated caspases can be used as a biochemical marker for apoptosis. Caspase-3 has substrate specificity for the amino acid sequence Asp-Glu-Val-Asp (DEVD), cleaving after Asp, and therefore caspase activity can be measured by monitoring cleavage of the substrate DEVD-AMC (Asp-Glu-Val-Asp-7-amino-4-[…]).
RKO cells were treated for 4, 8, and 12 h with PNG 4 (8) at 0.5 μM and PNG 6 (10) at 1 μM. Taxol, a known apoptotic inducer at 1 μM, was used as a positive control, and negative control cells were treated with vehicle (0.5% DMSO). Caspase-3 activity rose steadily as expected from 4-12 h in cells treated with PNG 4 (8), PNG 6 (10), and Taxol but remained constant in the untreated control cells.

[12] = Homo sapiens, RKO, 48 h, read-out: Cytotoxic Potency (EC50) RKO

Structure (SMILES) | isopeptidase inhibition relative to Δ12-PGJ2 [1] | p53 in RKO-E6 cells as percent of RKO cells [5] [%] | EC50 [7] [µM] | EC50 [8] [µM] | EC50 [9] [µM] | EC50 [4, 12] [µM] | further results
CCCCC[C@H](O)/C=C/[C@H]1C=CC(=O)[C@@H]1CCCCCCC(=O)O [PGA1] | significantly less potent | – | – | – | – | – | EC50 [2]: 11.6 µM; inhibition of Ub-PEST degradation in HCT 116 lysates [3]: no detectable inhibition; EC50 ([4]; read-out: EC50 in RKO cell lines, prostaglandins for comparison, comparison values in the text): 33.6 µM
COc1cc([C@@H]2c3cc4c(cc3[C@@H](O[C@@H]3O[C@@H]5CO[C@@H](C)O[C@H]5[C@H](O)[C@H]3O)[C@H]3COC(=O)[C@H]23)OCO4)cc(OC)c1O [Etoposide, etoposide] | – | 50 | 29 ± 6.8 | 20 ± 2.7 | 7.8 ± 3.9 | 7.3 ± 1.6 | ratio of p53 protein [RKO-E6 cells/RKO cells] [6]: 0.1; potency in HCT 116 −/− cells less than in HCT 116 +/+ cells ([7]; 48 h, MTT): ~4 fold; potency in RKO-E6 cells less than in RKO cells ([8]; 48 h, MTT): ~3 fold; p21 protein in treated cells relative to control cells ([10]; 50 µM): 290%
CC(=O)O[C@H]1C(=O)[C@@]2(C)[C@H]([C@H](OC(=O)c3ccccc3)[C@]3(O)C[C@H](OC(=O)[C@H](O)[C@@H](NC(=O)c4ccccc4)c4ccccc4)C(C)=C1C3(C)C)[C@]1(OC(C)=O)CO[C@@H]1C[C@@H]2O [Taxol, paclitaxel] | – | – | 0.005 | 0.004 | 0.004 | 0.004 | Caspase-3 activity from 4-12 h [11]: rose steadily; cell death in HCT 116 +/+ compared with HCT 116 −/− cells ([9]; 48 h, MTT, isogenic pair): equivalent; cell death in RKO compared with RKO-E6 cells ([4]; 48 h, MTT, isogenic pair): equivalent
CCCCC[C@H](O)/C=C/[C@H]1C=CC(=O)[C@@H]1C/C=C\CCCC(=O)O [PGA2] | significantly less potent | 60 | – | – | – | – | p21 protein in treated cells relative to control cells ([10]; RKO cells, 50 μM Etoposide, 60 μM PGA2, punaglandins 2 and 7 μM): 10%
